Measurements published in patent US20080234464A1, “Compound Having Amino Acid Residue or Peptide Residue and Process for Producing the Same” (priority 2005, published 2008).

What was measured:
Format in all cases: cell-based
[1] = tested on: T24 (human urinary bladder carcinoma) cells; assay: Nucleic acid transfection experiment (siRNA level), FITC-labeled siRNA, flow cytometer; conditions: compounds (1-A)/(1-B): 0.6 mM), 0.5 μg FITC-labeled siRNA, 2 hours
Method: (§1) In order to attain 50 to 60% confluence at the time of siRNA transfection, PC3 ([…]) cells, UMUC3 (human bladder carcinoma) cells and T24 (human urinary bladder carcinoma) cells were separately seeded in a 6-well plate on the day before the transfection and cultured at 37° C. in a 5% CO2 incubator.
(§2) A 100-μl quantity of Opti-MEM was added to each of several 1.5-ml tubes, and two samples each of 1, 3 and 10 μl of PBS solution containing the carriers for nucleic acid transfection of Reference Example 3 in one of the two samples and Reference Example 8 in the other sample (each carrier for nucleic acid transfection content had been adjusted so that compound (1L-A) was at 0.067 mM) were separately added to each tube and then left to stand at room temperature for about 10 minutes. Further, 0.5 μg of FITC-labeled siRNA (fluorescent labeled siRNA ((sense)Fluo-[…]/(antisense)[…]: product of Proligo) was added to each tube and then left to stand for 15 minutes, forming a complex of siRNA and the carrier for gene transfection.
(§3) Separately, 50 μl of Opti-MEM was added to each of several 1.5-ml tubes, and two samples each of 1, 3 and 10 μl of PBS solution containing 0.6 mM compound (1-A) in one of the two samples and 0.6 mM compound (1-B) in the other sample were separately added to each tube, mixed by tapping, and then left to stand at room temperature for 5 minutes. Further, 0.5 μg of FITC-labeled siRNA (same as above) was added to each tube and then left to stand for 30 minutes, forming a complex of the siRNA and carrier for gene transfection.
(§4) After a while, the prepared solutions containing the siRNA and carrier for gene transfection were separately added to the wells in which the cells were present at 50 to 60% confluence. The plates were slowly pitched and rolled, and culture was then performed at 37° C. under a condition of 5% CO2 for 2 hours. After the culture was completed, FITC-positive cells were counted by a flow cytometer to calculate the siRNA transfection efficiency (%) in cells. Further, for comparison with conventional carriers for nucleic acid transfection (Lipofectamine 2000, TransIt-TKO, Metafectene, and oligofectamine), siRNA transfection efficiency (%) in cells was calculated in the same manner as above using the protocol recommended by the respective manufacture and corresponding to a transfection nucleic acid amount of 0.5 μg.

[2] = tested on: UMUC3 (human bladder carcinoma) cells; assay: as above; conditions: compounds (1-A)/(1-B): 0.6 mM), 0.5 μg FITC-labeled siRNA, 2 hours
Method: as §1, §2, §3, §4

[3] = tested on: PC3 (human lung adenocarcinoma) cells; assay: as above; conditions: compounds (1-A)/(1-B): 0.6 mM), 0.5 μg FITC-labeled siRNA, 2 hours
Method: as §1, §2, §3, §4

[4] = tested on: T24 (human urinary bladder carcinoma) cells; assay: Nucleic acid transfection experiment (oligo DNA level), FITC-labeled single-strand DNA, FACS; conditions: 0.3 μg FITC-labeled single-strand DNA (20 mer), 4 hours at 37° C.
Method: (§5) PC3 ([…]) cells, UMUC3 (human bladder carcinoma) cells, T24 (human urinary bladder carcinoma) cells and NIH-3T3 (mouse embryonic fibroblast) cells were separately precultured in a 12-well plate, either in a 10% FBS-containing RPMI medium (PC3 cells, NIH-3T3 cells, and T24 cells) or in a 10% FBS-containing DMEM medium (UMUC cells), to attain a 60 to 70% confluent state.
(§6) A 1 μl quantity of each of the compounds shown in Table 1 [solutions containing compound (1-A) or (1-B) at 0.37, 0.13 and 0.04 mM] was added to each of a corresponding number of containers each holding 50 μl of non-serum medium, mixed by tapping, and incubated at room temperature for 5 minutes. Subsequently, 0.3 μg of FITC-labeled single-strand DNA (20 mer) (FITC-[…]: product of Proligo) was added to each of the above-prepared media containing a carrier for nucleic acid transfection, mixed by tapping, and incubated at 37° C. for 30 minutes (mixed by tapping every 10 minutes). The obtained mixtures were separately added to the above wells in which the cell culture had been completed, leveled by lightly tapping, and then incubated at 37° C. for 4 hours. The cells were collected, and FITC-positive cells were counted by FACS to calculate DNA transfection efficiency (%) in cells. Further, for the comparison with conventional carriers for nucleic acid transfection (Lipofectamine 2000, TransIt-TKO, and Fugene 6), siRNA transfection efficiency (%) in PC3 cells was calculated in the same manner as above using the protocol recommended by the respective manufacturer and corresponding to a transfection nucleic acid amount of 0.3 μg.

[5] = tested on: NIH-3T3 (mouse embryonic fibroblast) cells; assay: as above; conditions: 0.3 μg FITC-labeled single-strand DNA (20 mer), 4 hours at 37° C.
Method: as §5, §6

[6] = tested on: UMUC3 (human bladder carcinoma) cells; assay: as above; conditions: 0.3 μg FITC-labeled single-strand DNA (20 mer), 4 hours at 37° C.
Method: as §5, §6

[7] = tested on: PC3 (human lung adenocarcinoma) cells; assay: as above; conditions: for DNA transfection efficiency in cells (%): PC3, 0.3 μg FITC-labeled single-strand DNA (20 mer), 4 hours at 37° C.
Method: as §5, §6

[8] = amount 1 μl of carrier solution (Reference Examples: 0.067 mM as compound (1L-A)
[9] = amount 3 μl of carrier solution (Reference Examples: 0.067 mM as compound (1L-A)
[10] = amount 10 μl of carrier solution (Reference Examples: 0.067 mM as compound (1L-A)
[11] = 1 μl of 0.04 mM compound solution
[12] = 1 μl of 0.13 mM compound solution
[13] = 1 μl of 0.37 mM compound solution

In the case of `N=C(N)NCCCC(N)C(=O)CC(CNC(=N)N)C(=O)NC(CCCNC(=N)N)C(=O)NCCCCC(N)C(=O)NC(CCCCNC(=O)C(CCCNC(=N)N)NC(=O)C(CNC(=N)N)CC(=O)C(N)CCCNC(=N)N)C(=O)NC(CCCCNC(=O)C(CCCNC(=N)N)NC(=O)C(CNC(=N)N)CC(=O)C(N)CCCNC(=N)N)C(=O)NC(CCCCNC(=O)C(CCCNC(=N)N)NC(=O)C(CNC(=N)N)CC(=O)C(N)CCCNC(=N)N)C(=O)NC(CCCCNC(=O)C(CCCNC(=N)N)NC(=O)C(CNC(=N)N)CC(=O)C(N)CCCNC(=N)N)C(=O)NCCCCCC(=O)NCCCCCC(N)=O` (stereo not shown) [(1-B)], the “siRNA transfection efficiency in cells (%)” value [1, 8] is reported as 11.6%, the “siRNA transfection efficiency in cells (%)” value [1, 9] is reported as 19.2% and the “siRNA transfection efficiency in cells (%)” value [1, 10] is reported as 60.7%. The “siRNA transfection efficiency in cells (%)” value [2, 8] was 5.3%, the “siRNA transfection efficiency in cells (%)” value [2, 9] was 4.4% and the “siRNA transfection efficiency in cells (%)” value [2, 10] was 7.0%. For the same compound, the “siRNA transfection efficiency in cells (%)” value [3, 8] was 3.5%, the “siRNA transfection efficiency in cells (%)” value [3, 9] was 10.1% and the “siRNA transfection efficiency in cells (%)” value [3, 10] was 42.0%. For the same compound, the “DNA transfection efficiency in cells (%)” value [4, 11] was 13.4%, the “DNA transfection efficiency in cells (%)” value [4, 12] was 26.0% and the “DNA transfection efficiency in cells (%)” value [4, 13] was 31.4%. The “DNA transfection efficiency in cells (%)” value [5, 11] was 84.0%, the “DNA transfection efficiency in cells (%)” value [5, 12] was 93.2% and the “DNA transfection efficiency in cells (%)” value [5, 13] was 87.0%. For the same compound, the “DNA transfection efficiency in cells (%)” value [6, 11] was 61.7%, the “DNA transfection efficiency in cells (%)” value [6, 12] was 77.2% and the “DNA transfection efficiency in cells (%)” value [6, 13] was 61.5%. The “DNA transfection efficiency in cells (%)” value [7, 11] was 65.0%, the “DNA transfection efficiency in cells (%)” value [7, 12] was 76.1% and the “DNA transfection efficiency in cells (%)” value [7, 13] was 83.8%. The “suitability for introducing nucleic acids into cells (conclusion from Table 1)” value ([7]; conclusion over PC3, UMUC3, T24 and NIH-3T3 cells) was “excellently suitable for introducing nucleic acids into cells”.
